Measurements from patent publication US10807994B2, “Heterocyclic compounds and uses thereof” (NUVATION BIO INC., priority 2017, dated 2020).

Columns and labels:
WEE1 kinase enzyme = WEE1 kinase enzyme (Homo sapiens (Human), UniProt P30291); assay: WEE1 IC50 determination, LanthaScreen Terbium labeled TR-FRET kinase assay; format: biochemical; details: WEE1 enzyme 1 nM
Experimental: IC50 values of compounds against WEE1 kinase enzyme were determined by LanthaScreen™ Terbium Labeled TR-FRET assay. Kinase assays were performed in 1× kinase buffer (# PV6135, Invitrogen, Life Technologies Grand Island, N.Y.) where total reaction volume was 10 μl in low-volume 384-well plates (#4511, Corning). Serially diluted compounds (3-fold) were incubated with WEE1 Enzyme (1 nM) (# PR7373A, Invitrogen, Life Technologies Grand Island, N.Y.) for 10 min, following which a mixture of ATP […] (# A1852, Sigma, St-Louis, Mo.) and fluorescent-PolyGT substrate (200 nM) (# PV3610, Invitrogen, Life Technologies Grand Island, N.Y.) was added and incubated in dark at room temperature for 1 h. After 1 h, 10 μl stop solution containing Terbium labeled antibody (4 nM) (# PV3529, Invitrogen, Life Technologies Grand Island, N.Y.) and EDTA (# E5134, Sigma, St-Louis, Mo.) (20 mM) in TR-FRET dilution buffer (# PV3574, Invitrogen, Life Technologies Grand Island, N.Y.) was added. Readings were taken in a Synergy Neo Plate reader (BioTek, Winooski) at single excitation of 340 nm and Dual emission at 495 nm and 520 nm respectively.
The % activity of test samples was calculated as (Sample−Min)*100/(Max−Min). [Max: DMSO control, complete reaction with enzyme & DMSO and Min: No enzyme & DMSO]. Percent inhibition (100-% activity) was fitted to the “four-parameter logistic model” in XLfit for determination of IC50 values.

A427 cells = assay: Cytotoxicity assay (resazurin), A427 cells, 72 hr; format: cell-based; details: Homo sapiens, A-427, read-out: Cell Viability A427 IC50
Experimental: A549 (CCL-185; ATCC) and A427 (HTB-53; ATCC), both lung epithelial cell lines were seeded in their respective medium (DMEM/MEM, 10569044/41090101; Gibco) at a cell count of 1500 cells per 100 μL per well in a 96 well edge plate (167425; ThermoFisher). Cells were allowed to grow at 37° C. for 24 hr in 5% CO2 environment (culture conditions) in a Nuaire incubator (humidified). Serially diluted test compounds (100 μL) within the desired testing concentration ranges were added to the culture plate were further incubated in culture conditions for 72 hr and 96 hr for A427 and A549 respectively. The experiment was terminated at the designated incubation time by replacing the medium with 100 μL of 1 mM of resazurin (R7017; Sigma) prepared in respective culture medium, and the plates were further incubated in culture conditions for 4-6 hr. Fluorescence was recorded using a multimodal plate reader (Biotek Synergy Neo) at an excitation wavelength of 535 nm and emission wavelength of 590 nm to obtain relative fluorescence units. Data analysis was done by subtracting the background fluorescence (only medium blank) value from each reading and then normalizing with the vehicle control (DMSO treated cells) to obtain percent survival/proliferation. Percent survival was then subtracted by 100 to get the percent inhibition of proliferation which was used to calculate IC50 values. Potency of compounds in other cell lines (As-Pc-1, Panc-10.05, MDAMB231, A172) was determined in an analogous manner.

Sequence of WEE1 kinase enzyme (P30291 whole entry): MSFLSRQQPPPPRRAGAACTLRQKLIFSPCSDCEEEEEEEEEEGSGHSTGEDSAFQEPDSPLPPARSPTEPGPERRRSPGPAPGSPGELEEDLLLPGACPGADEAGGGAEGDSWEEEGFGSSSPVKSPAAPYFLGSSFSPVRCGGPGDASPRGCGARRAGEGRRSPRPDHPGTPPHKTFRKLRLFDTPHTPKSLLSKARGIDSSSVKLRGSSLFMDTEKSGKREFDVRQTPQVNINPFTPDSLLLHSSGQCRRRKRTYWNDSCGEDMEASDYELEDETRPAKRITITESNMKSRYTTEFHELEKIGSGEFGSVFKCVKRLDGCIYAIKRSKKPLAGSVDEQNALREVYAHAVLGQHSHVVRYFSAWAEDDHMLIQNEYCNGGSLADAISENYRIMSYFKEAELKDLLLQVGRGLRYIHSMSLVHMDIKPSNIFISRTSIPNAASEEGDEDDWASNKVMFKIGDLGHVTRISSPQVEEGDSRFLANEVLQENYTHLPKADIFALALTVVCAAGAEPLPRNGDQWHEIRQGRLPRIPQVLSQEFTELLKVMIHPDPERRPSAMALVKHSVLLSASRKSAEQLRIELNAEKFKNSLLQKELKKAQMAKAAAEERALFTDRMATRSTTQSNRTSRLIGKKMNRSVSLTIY

| Compound | IC50 (WEE1 kinase enzyme) [µM] | IC50 (A427 cells) [µM] |
| --- | --- | --- |
| CN1CCN(c2ccc(Nc3ncc4c(n3)OCN(c3c(F)cccc3Cl)C4=O)cc2)CC1 [Example 1.25] | 0.068 | – |
| O=C1c2cnc(Nc3ccc(N4CCC(F)(F)CC4)cc3)nc2OCN1c1c(Cl)cccc1Cl [Example 1.63] | > 5 | – |
| CC1(C)CNCc2cc(Nc3ncc4c(n3)OCN(c3ccc(F)cc3Cl)C4=O)ccc21 [Example 1.14] | 0.173 | – |
| C[C@H]1CNCCN1c1ccc(Nc2ncc3c(n2)OCN(c2c(Cl)cccc2Cl)C3=O)cc1 [Example 1.172] | 0.066 | 4.9 |
| CC1Oc2nc(Nc3ccc(N4CCNCC4)c(CO)c3)ncc2C(=O)N1c1c(Cl)cccc1Cl (centres unmarked) [Example 1.62] | 0.123 | 2.8 |
| CN1CCN(c2ccc(Nc3ncc4c(n3)SCN(c3c(Cl)cccc3Cl)C4=O)cc2)CC1 [Example 1.230] | 0.561 | 4.94 |
| CN(c1ccc(N2CCNCC2)cc1)c1ncc2c(n1)OCN(c1c(Cl)cccc1Cl)C2=O [Example 1.104] | > 5 | 27.8 |
| CC1(C)NCCc2cc(Nc3ncc4c(n3)SCN(c3c(Cl)cccc3Cl)C4=O)ccc21 [Example 1.246] | 0.061 | 2.44 |
| CN(C)C1CCN(c2ccc(Nc3ncc4c(n3)SCN(c3c(Cl)cccc3Cl)C4=O)cc2Cl)CC1 [Example 1.240] | 0.303 | 1.64 |
| COc1cc(Nc2ncc3c(n2)SCN(c2c(Cl)cccc2Cl)C3=O)ccc1N1CCC(N(C)C)CC1 [Example 1.242] | 0.331 | 1.62 |
| CC1Oc2nc(Nc3ccc(N4CCNCC4)cc3)ncc2C(=O)N1c1c(Cl)cccc1Cl (centres unmarked) [Example 1.17] | 0.156 | – |
| O=C1c2cnc(Nc3ccc(N4CCNC(CO)C4)cc3)nc2OCN1c1c(Cl)cccc1Cl (centres unmarked) [Example 1.96] | 0.047 | 5.89 |
| CCN1Cc2cc(Nc3ncc4c(n3)OCN(c3c(Cl)cccc3Cl)C4=O)ccc2C(C)(C)C1 [Example 1.22] | 0.03 | – |
| Cc1cc(Nc2ncc3c(n2)SCN(c2c(Cl)cccc2Cl)C3=O)ccc1N1CCNCC1 [Example 1.235] | 0.111 | 2.9 |
| O=C1c2cnc(Nc3ccc4c(c3)NCCN4)nc2OCN1c1c(Cl)cccc1Cl [Example 1.226] | 0.188 | 5.36 |
| CCN(CC)CCOc1ccc(Nc2ncc3c(n2)OCN(c2c(Cl)cccc2Cl)C3=O)cc1 [Example 1.225] | 0.282 | 2.16 |
| CN1CCN(c2ccc(Nc3ccc4c(n3)OCN(c3c(Cl)cccc3Cl)C4=O)cc2)CC1 [Example 1.31, 3-(2,6-dichlorophenyl)-7-(4-(4-methylpiperazin-1-yl)phenylamino)-2H-pyrido[3,2-e][1,3]oxazin-4(3H)-one] | 30 | – |
| CCN1CCN(c2ccc(Nc3ncc4c(n3)OCN(c3c(Cl)cccc3Cl)C4=O)cc2)CC1 [Example 1.18] | 0.192 | – |
| Cc1cc(Nc2ncc3c(n2)OCN(c2c(Cl)cccc2Cl)C3=O)cc(C)c1N1CCNCC1 [Example 1.176] | 0.105 | 3.25 |
| CC1(C)CNCc2cc(Nc3ncc4c(n3)OCN(c3c(F)cccc3Cl)C4=O)ccc21 [Example 1.28] | 0.035 | – |
| CCS(=O)(=O)N1CCN(c2ccc(Nc3ncc4c(n3)OCN(c3c(Cl)cccc3Cl)C4=O)cc2)CC1 [Example 1.15] | 1.56 | – |
| CN(C)Cc1c[nH]c2cc(Nc3ncc4c(n3)OCN(c3c(Cl)cccc3Cl)C4=O)ccc12 [Example 1.107] | 0.11 | 7.7 |
| CC1CN(c2ccc(Nc3ncc4c(n3)OCN(c3c(Cl)cccc3Cl)C4=O)cc2Cl)CCN1 (centres unmarked) [Example 1.228] | 0.127 | 1.46 |
| O=C(CO)N1CCc2ccc(Nc3ncc4c(n3)OCN(c3c(Cl)cccc3Cl)C4=O)cc2C1 [Example 1.7] | 0.074 | – |
| O=C1c2cnc(Nc3ccc4cnccc4c3)nc2OCN1c1c(Cl)cccc1Cl [Example 1.64] | > 5 | – |
| O=C1c2cnc(Nc3ccc(N4CCCNCC4)cc3)nc2OCN1c1c(Cl)cccc1Cl [Example 1.61] | 0.11 | 4.12 |
| CN1Cc2cc(Nc3ncc4c(n3)SCN(c3c(Cl)cccc3Cl)C4=O)ccc2C(C)(C)C1 [Example 1.241] | 0.095 | 3.49 |

| Compound | IC50 (WEE1 kinase enzyme) [µM] | IC50 (A427 cells) [µM] |
| --- | --- | --- |
| O=C1c2cnc(Nc3ccc(N4CCNCC4CO)cc3)nc2OCN1c1c(Cl)cccc1Cl (centres unmarked) [Example 1.13] | 0.144 | – |
| C[C@@H]1CN(c2ccc(Nc3ncc4c(n3)OCN(c3c(Cl)cccc3Cl)C4=O)cc2)CCN1 [Example 1.173] | 0.087 | 3.32 |
| O=C(CO)N1CCN(c2ccc(Nc3ncc4c(n3)OCN(c3c(Cl)cccc3Cl)C4=O)cc2)CC1 [Example 1.8] | 0.162 | – |
| CN(C)C1CCN(c2ccc(Nc3ncc4c(n3)SCN(c3c(Cl)cccc3Cl)C4=O)cc2)CC1 [Example 1.232] | 0.273 | 1.12 |
| CC(C)(O)C(=O)N1Cc2cc(Nc3ncc4c(n3)OCN(c3c(Cl)cccc3Cl)C4=O)ccc2C(C)(C)C1 [Example 1.6] | 0.279 | – |
| O=C1c2cnc(Nc3ccc(N4CCOCC4)cc3)nc2OCN1c1c(Cl)cccc1Cl [Example 1.2] | 3.26 | – |
| CN1CCN(c2ccc(Nc3ncc4c(n3)OCN(c3ccc(F)cc3Cl)C4=O)cc2)CC1 [Example 1.11] | 0.837 | – |
| CN(C)C1CCN(c2ccc(Nc3ncc4c(n3)OCN(c3c(Cl)cccc3Cl)C4=O)cc2)CC1 [Example 1.223] | 0.032 | 1.66 |
| O=C1c2cnc(Nc3ccc4c(c3)CCCN4)nc2OCN1c1c(Cl)cccc1Cl [Example 1.224] | 0.232 | 12.1 |
| O=C1c2cnc(Nc3ccc(N4CCNCC4)cc3)nc2OCN1c1ccccc1Cl [Example 1.9] | 0.193 | – |
| O=C1c2cnc(Nc3ccc4c(c3)CNCC4)nc2SCN1c1c(Cl)cccc1Cl [Example 1.233] | 0.165 | 7.21 |
| CC1(C)CNCc2cc(Nc3ncc4c(n3)SCN(c3c(Cl)cccc3Cl)C4=O)ccc21 [Example 1.231] | 0.142 | 2.23 |
| O=C1c2cnc(Nc3ccc(N4CCNCC4)c(Cl)c3)nc2SCN1c1c(Cl)cccc1Cl [Example 1.236] | 0.335 | 1.77 |
| O=C1c2cnc(Nc3ccc4[nH]ncc4c3)nc2OCN1c1c(Cl)cccc1Cl [Example 1.87] | 0.777 | 25.4 |
| O=C1c2cnc(Nc3ccc4c(c3)NCCC4)nc2OCN1c1c(Cl)cccc1Cl [Example 1.121] | 0.501 | 7.33 |
| CN(C)C1CCN(c2ccc(Nc3ncc4c(n3)SCN(c3c(Cl)cccc3Cl)C4=O)cc2C#N)CC1 [Example 1.239] | 0.508 | 0.765 |
| O=C1c2cnc(Nc3ccc4c(c3)CN(CC(F)F)CC4)nc2OCN1c1c(Cl)cccc1Cl [Example 1.65] | 1.33 | – |
| O=C1c2cnc(Nc3ccc4[nH]ccc4c3)nc2OCN1c1c(Cl)cccc1Cl [Example 1.175] | 0.066 | 22 |
| CC(C)N1CCN(c2ccc(Nc3ncc4c(n3)OCN(c3c(Cl)cccc3Cl)C4=O)cc2)CC1 [Example 1.19] | 0.206 | – |
| O=C1NCCc2ccc(Nc3ncc4c(n3)OCN(c3c(Cl)cccc3Cl)C4=O)cc21 [Example 1.23] | 0.607 | – |
| CC1CCN(c2ccc(Nc3ncc4c(n3)OCN(c3c(Cl)cccc3Cl)C4=O)cc2)CC1 [Example 1.59, 3-(2,6-dichlorophenyl)-7-(4-(4-methylpiperidin-1-yl)phenylamino)-2H-pyrimido[5,4-e][1,3]oxazin-4(3H)-one] | > 5 | 14 |
| CN(C)C1CCN(c2ccc(Nc3ncc4c(n3)SCN(c3c(F)cccc3Cl)C4=O)cc2Cl)CC1 [Example 1.245] | 0.297 | 1.14 |
| CC1CN(c2ccc(Nc3ncc4c(n3)SCN(c3c(Cl)cccc3Cl)C4=O)cc2Cl)CCN1 (centres unmarked) [Example 1.244] | 0.351 | 0.51 |
| C[C@@H]1CN(c2ccc(Nc3ncc4c(n3)OCN(c3c(Cl)cccc3Cl)C4=O)cc2Cl)CCN1 [Example 1.919] | 0.34 | – |
| CC1CNCCN1c1ccc(Nc2ncc3c(n2)OCN(c2c(Cl)cccc2Cl)C3=O)cc1 (centres unmarked) [Example 1.26] | 0.088 | – |
| O=C1c2cnc(Nc3ccc(N4CCN(C5CC5)CC4)cc3)nc2OCN1c1c(Cl)cccc1Cl [Example 1.21] | 1.39 | – |
